{
  "source": "paper PMC8466947",
  "about": "“Polyphenol-Hydroxylating Tyrosinase Activity under Acidic pH Enables Efficient Synthesis of Plant Catechols and Gallols” (Microorganisms, 2021)",
  "target": "T1, BmTy (tyrosinase from Bacillus megaterium) (Priestia megaterium, UniProt B2ZB02)",
  "T1 construct": "6x His-tagged, expressed in E. coli BL21(DE3), Ni-NTA purified",
  "T1 sequence (B2ZB02 1-297)": "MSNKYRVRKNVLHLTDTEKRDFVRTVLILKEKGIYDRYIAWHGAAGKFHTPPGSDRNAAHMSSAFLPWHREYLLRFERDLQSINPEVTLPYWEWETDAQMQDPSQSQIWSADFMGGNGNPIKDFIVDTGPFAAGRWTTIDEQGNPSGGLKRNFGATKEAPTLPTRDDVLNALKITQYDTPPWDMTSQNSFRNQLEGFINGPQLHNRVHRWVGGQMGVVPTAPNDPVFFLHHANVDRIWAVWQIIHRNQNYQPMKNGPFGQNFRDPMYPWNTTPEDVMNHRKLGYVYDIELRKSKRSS",
  "assay": "dopachrome assay at […] nm, initial rates, L-tyrosine as substrate (monophenolase activity)",
  "type": "biochemical",
  "conditions": "read-out: KI1",
  "data": [
    {"smiles": "O=c1c(O)c(-c2ccc(O)c(O)c2)oc2cc(O)cc(O)c12", "note": "[QUE, quercetin]", "values": [
      {"measurement": "Ki", "result": 33.9, "unit": "µM"}
    ]}
  ]
}
